What is called inhibition is the drop in the measured response relative to a control, in per cent.

Where two headings read alike, the source gives them in different places.

For assay [1], the target named is T1, human recombinant adrenergic α2B receptor (Homo sapiens, UniProt P18089).
T1 construct: expressed in transfected cells; host or cells: CHO-K1 cells
T1 sequence (P18089 1-450): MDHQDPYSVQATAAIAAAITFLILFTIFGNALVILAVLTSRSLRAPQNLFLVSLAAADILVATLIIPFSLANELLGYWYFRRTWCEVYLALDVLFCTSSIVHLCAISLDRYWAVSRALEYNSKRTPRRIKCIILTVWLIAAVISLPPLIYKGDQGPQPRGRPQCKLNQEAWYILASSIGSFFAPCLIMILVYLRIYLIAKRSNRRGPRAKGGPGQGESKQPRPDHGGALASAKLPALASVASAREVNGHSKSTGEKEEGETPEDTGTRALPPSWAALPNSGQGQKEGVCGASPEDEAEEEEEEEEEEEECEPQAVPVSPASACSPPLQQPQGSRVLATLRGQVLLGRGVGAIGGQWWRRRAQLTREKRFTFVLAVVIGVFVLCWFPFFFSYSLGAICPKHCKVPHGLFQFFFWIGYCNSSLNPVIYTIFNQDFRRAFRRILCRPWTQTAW
The assay can be described thus: Adrenergic α2B radioligand binding ([3H]Rauwolscine). On the procedure: To evaluate in radioligand binding assays the activity of compounds of the invention, human recombinant adrenergic α2B receptor expressed in Chinese hamster ovary (CHO-K1) cells (Uhlen S et al. Eur J. Pharmacol. 343(1):93, 1998) in a modified Tris-HCl buffer (50 mM Tris-HCl, pH 7.4, 12.5 mM MgCl2, 1 mM EDTA, 0.2% BSA) was used. Compounds of the invention were incubated with 2.5 nM [^3H]Rauwolscine for 60 minutes at 25° C. Non-specific binding was estimated in the presence of 10 μM Prozosin. Receptor proteins were filtered and washed, the filters were then counted to determine [^3H]Rauwolscine specifically bound. Compounds were screened at 1 μM or lower, using 1% DMSO as vehicle. Biochemical assay results are presented as the percent inhibition of specific binding in Table 4.

In assay [2] the target is T2, human recombinant histamine H2 receptor (Homo sapiens, UniProt P25021).
T2 construct: expressed in transfected cells; host or cells: CHO-K1 cells
T2 sequence (P25021 whole entry): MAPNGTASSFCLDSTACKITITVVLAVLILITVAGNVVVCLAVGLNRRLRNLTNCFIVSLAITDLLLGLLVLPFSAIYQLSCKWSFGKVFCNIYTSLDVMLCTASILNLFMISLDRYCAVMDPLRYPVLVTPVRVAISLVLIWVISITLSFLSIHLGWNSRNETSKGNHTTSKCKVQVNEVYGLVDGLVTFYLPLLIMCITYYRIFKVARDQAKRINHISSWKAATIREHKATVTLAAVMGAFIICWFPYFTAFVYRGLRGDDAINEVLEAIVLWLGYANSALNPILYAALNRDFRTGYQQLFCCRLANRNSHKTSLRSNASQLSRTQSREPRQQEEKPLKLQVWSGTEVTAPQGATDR
Description: Histamine H2 radioligand binding ([125I]Aminopotentidine). Put shortly: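 Membranes of CHO-K1 cells expressing human H2 receptor incubated with 0.1 nM [125I]aminopotentidine, 120 min, 25 °C, 50 mM phosphate pH 7.4; nonspecific binding defined with 3 μM tiotidine.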

Assay [3] deals with T3, human recombinant adrenergic α1D receptor (Homo sapiens, UniProt P25100).
T3 construct: expressed in transfected cells; host or cells: HEK-293 cells
T3 sequence (P25100 1-572): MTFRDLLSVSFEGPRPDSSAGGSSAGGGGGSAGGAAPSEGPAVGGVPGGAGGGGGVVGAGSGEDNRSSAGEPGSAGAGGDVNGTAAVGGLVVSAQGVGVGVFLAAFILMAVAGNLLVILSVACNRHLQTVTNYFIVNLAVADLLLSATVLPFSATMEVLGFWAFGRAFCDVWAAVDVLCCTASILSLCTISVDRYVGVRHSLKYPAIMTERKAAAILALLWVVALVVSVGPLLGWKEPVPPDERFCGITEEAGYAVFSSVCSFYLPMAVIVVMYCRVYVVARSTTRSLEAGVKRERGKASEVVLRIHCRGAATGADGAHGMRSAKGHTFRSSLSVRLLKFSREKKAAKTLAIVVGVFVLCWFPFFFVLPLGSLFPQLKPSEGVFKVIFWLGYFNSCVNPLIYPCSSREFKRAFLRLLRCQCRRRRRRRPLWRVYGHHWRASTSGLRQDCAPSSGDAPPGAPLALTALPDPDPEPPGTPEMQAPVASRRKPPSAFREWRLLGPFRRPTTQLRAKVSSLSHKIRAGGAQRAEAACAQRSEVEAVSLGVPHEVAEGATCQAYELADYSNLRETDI
The assay can be described thus: Adrenergic α1D radioligand binding ([3H]Prozosin). How it is done: To evaluate in radioligand binding assays the activity of compounds of the invention, human recombinant adrenergic a1D receptor expressed in human embryonic kidney (HEK-293) cells (Kenny, B. A. et al. Br. J. Pharmacol. 115(6):981, 1995) in a 50 mM Tris-HCl buffer, pH 7.4, was used. Compounds of invention were incubated with 0.6 nM [^3H]Prozosin for 60 minutes at 25° C. Non-specific binding was estimated in the presence of 10 μM phentolamine. Receptor proteins were filtered and washed, the filters were then counted to determine [^3H]Prozosin specifically bound. Compounds were screened at 1 μM or lower, using 1% DMSO as vehicle. Biochemical assay results are presented as the percent inhibition of specific binding in Table 4. Adrenergic a2A

[4] abbreviates: 1 h, read-out: Percent Inhibition of ligand binding Adrenergic (1 μM ligand conc.) α2B.
Where [5] appears, read: 1 μM, inhibition of specific [125I]Aminopotentidine binding, read-out: Binding data (Percentage Inhibition) Histamine Binding (1 μM) H2.
Where [6] appears, read: 1 h, read-out: Percent Inhibition of ligand binding Adrenergic (1 μM ligand conc.) α1D.
Where [7] appears, read: compound concentration 1 μM, read-out: Percentage inhibition of ligand binding to Adrenergic α2B receptor.
Where [8] appears, read: compound concentration 1 μM, read-out: Percentage inhibition of ligand binding to H2 receptor.
[9] abbreviates: compound concentration 1 μM, read-out: Percentage inhibition of ligand binding to Adrenergic α1D receptor.

For the compound `CN1CCc2c(n(CC(=O)N3CCNCC3)c3ccc(Cl)cc23)C1` [Compound 55, 2-(6-chloro-2-methyl-3,4-dihydro-1H-pyrido[3,4-b]indol-9(2H)-yl)-1-(piperazin-1-yl)ethanone], the inhibition at 1 µM in assay [1] (setting [4]) is -21%; in assay [2] (setting [5]) it was 2%; in assay [3] (setting [6]), 10%.

For the compound `Cc1ccc(CCCn2c3c(c4cc(Cl)ccc42)CCN(C)C3)cn1` [Compound 56, 6-chloro-2-methyl-9-(3-(6-methylpyridin-3-yl)propyl)-2,3,4,9-tetrahydro-1H-pyrido[3,4-b]indole], the inhibition at 1 µM in assay [1] (setting [4]) is -10%; in assay [2] (setting [5]), 20%; in assay [3] (setting [6]) it was 16%.

Take `Cc1ccc2c(c1)c1c(n2CC(=O)N2CCCCC2)CN(C)CC1` [Compound 57, 2-(2,6-dimethyl-3,4-dihydro-1H-pyrido[3,4-b]indol-9(2H)-yl)-1-(piperidin-1-yl)ethanone]: the inhibition at 1 µM stood at 29% in assay [1] (setting [4]), 10% in assay [2] (setting [5]) and 77% in assay [3] (setting [6]).

As to `CN1CCc2c(n(CC(=O)N3CCCCC3)c3ccc(Cl)cc23)C1` [Compound 58, 2-(6-chloro-2-methyl-3,4-dihydro-1H-pyrido[3,4-b]indol-9(2H)-yl)-1-(piperidin-1-yl)ethanone], the figures for the inhibition at 1 µM in assay [1] (setting [4]), in assay [2] (setting [5]) and in assay [3] (setting [6]) were -15%, 11% and 19%, respectively.

In the case of `CN1CCc2c(n(CC(O)c3ccccc3F)c3ccc(Cl)cc23)C1` (stereo not drawn) [Compound 59, 2-(6-chloro-2-methyl-3,4-dihydro-1H-pyrido[3,4-b]indol-9(2H)-yl)-1-(2-fluorophenyl)ethanol], the values for the inhibition at 1 µM in assay [1] (setting [4]), in assay [2] (setting [5]) and in assay [3] (setting [6]) were 97%, 28% and 30%, respectively.

For the compound `Cc1ccc2c(c1)c1c(n2CC(O)c2ccccc2F)CN(C)CC1` (stereo not drawn) [Compound 60, 2-(2,6-dimethyl-3,4-dihydro-1H-pyrido[3,4-b]indol-9(2H)-yl)-1-(2-fluorophenyl)ethanol], the inhibition at 1 µM was -5% in assay [1] (setting [4]), 15% in assay [2] (setting [5]) and 29% in assay [3] (setting [6]).

Regarding `Cc1ccc2c(c1)c1c(n2CC(C)(O)c2ccc(F)cc2)CN(C)CC1` (stereo not drawn) [Compound 61, 1-(2,6-dimethyl-3,4-dihydro-1H-pyrido[3,4-b]indol-9(2H)-yl)-2-(4-fluorophenyl)propan-2-ol], the inhibition at 1 µM in assay [1] (setting [4]) was determined as 101%; in assay [2] (setting [5]) it was 17%; in assay [3] (setting [6]), 49%.

For the compound `CN1CCc2c(n(CC(C)(O)c3ccc(F)cc3)c3ccc(Cl)cc23)C1` (stereo not drawn) [Compound 62, 1-(6-chloro-2-methyl-3,4-dihydro-1H-pyrido[3,4-b]indol-9(2H)-yl)-2-(4-fluorophenyl)propan-2-ol], the inhibition at 1 µM turned out to be 102% in assay [1] (setting [4]), 48% in assay [2] (setting [5]) and 44% in assay [3] (setting [6]).

Regarding `COc1ccc(C(O)Cn2c3c(c4cc(C)ccc42)CCN(C)C3)cc1OC` (stereo not drawn) [Compound 66], the results for the inhibition at 1 µM in assay [1] (setting [4]), in assay [2] (setting [5]) and in assay [3] (setting [6]) were 74%, 1% and 74%, respectively.

For `Cc1ccc2c(c1)c1c(n2CC(O)c2ccccc2)CN(C)CC1` (stereo not drawn) [Compound 67], the inhibition at 1 µM came to 106% in assay [1] (setting [4]), 8% in assay [2] (setting [5]) and 85% in assay [3] (setting [6]).

For `COc1ccc(C(O)Cn2c3c(c4cc(Cl)ccc42)CCN(C)C3)cc1OC` (stereo not drawn) [Compound 70], the inhibition at 1 µM in assay [1] (setting [4]) was determined as 77%; in assay [2] (setting [5]), 1%; in assay [3] (setting [6]) it was 44%.

On to `CN1CCc2c(n(CC(O)c3ccccc3)c3ccc(Cl)cc23)C1` (stereo not drawn) [Compound 71], for which the inhibition at 1 µM in assay [1] (setting [4]) amounted to 95%; in assay [2] (setting [5]), 11%; in assay [3] (setting [6]), 58%.

With `Cc1ccc(C(O)Cn2c3c(c4cc(C)ccc42)CCN(C)C3)cc1` (stereo not drawn) [Compound 72], the results for the inhibition at 1 µM in assay [1] (setting [4]), in assay [2] (setting [5]) and in assay [3] (setting [6]) were 105%, 19% and 86%, respectively.

Turning to `CCC1c2c(c3cc(Cl)ccc3n2CCc2ccc(F)cc2)CCN1C` (stereo not drawn) [Compound 78], the values for the inhibition at 1 µM in assay [1] (setting [4]), in assay [2] (setting [5]) and in assay [3] (setting [6]) were 102%, 33% and 42%, respectively.

In the case of `CCC1c2c(c3cc(Cl)ccc3n2CC(C)(O)c2ccc(F)cc2)CCN1C` (stereo not drawn) [Compound 79], the inhibition at 1 µM in assay [1] (setting [4]) stood at 89%; in assay [2] (setting [5]), 20%; in assay [3] (setting [6]) it was 17%.

With `Cc1ccc(CCn2c3c(c4cc(Cl)ccc42)CCN(C)C3C)cn1` (stereo not drawn) [Compound 80], the inhibition at 1 µM was 100% in assay [1] (setting [4]), 18% in assay [2] (setting [5]) and 89% in assay [3] (setting [6]).

In the case of `CC1c2c(c3cc(Cl)ccc3n2CCc2ccc(F)cc2)CCN1C` (stereo not drawn) [Compound 81], the figures for the inhibition at 1 µM in assay [1] (setting [4]), in assay [2] (setting [5]) and in assay [3] (setting [6]) were 102%, 67% and 64%, respectively.

`C/C(=C\n1c2c(c3cc(Cl)ccc31)CCN(C)C2)c1ccc(F)cc1` [Compound 90, (E)-6-chloro-9-(2-(4-fluorophenyl)prop-1-enyl)-2-methyl-2,3,4,9-tetrahydro-1H-pyrido[3,4-b]indole]: the inhibition at 1 µM was 97% in assay [1] (setting [4]); 97% in assay [1] (setting [7]); 64% in assay [2] (setting [5]); 64% in assay [2] (setting [8]); 62% in assay [3] (setting [6]); 62% in assay [3] (setting [9]).

`C/C(=C\n1c2c(c3cc(C)ccc31)CCN(C)C2)c1ccc(F)cc1` [Compound 91, (E)-9-(2-(4-fluorophenyl)prop-1-enyl)-2,6-dimethyl-2,3,4,9-tetrahydro-1H-pyrido[3,4-b]indole]: the inhibition at 1 µM in assay [1] (setting [4]) worked out at 94%; in assay [1] (setting [7]) it was 94%; in assay [2] (setting [5]), 68%; in assay [2] (setting [8]) it was 68%; in assay [3] (setting [6]), 73%; in assay [3] (setting [9]) it was 73%.

In the case of `Cc1ccc2c(c1)c1c(n2/C=C/c2ccccc2)CN(C)CC1` [Compound 92], the inhibition at 1 µM in assay [1] (setting [4]) is 104%; in assay [1] (setting [7]), 104%; in assay [2] (setting [5]), 50%; in assay [2] (setting [8]), 50%; in assay [3] (setting [6]), 97%; in assay [3] (setting [9]), 97%.

As for `C/C(=C\n1c2c(c3cc(C)ccc31)CCN(C)C2)c1ccc(Cl)cc1` [Compound 97, 9-(2-(4-chlorophenyl)prop-1-enyl)-2,6-dimethyl-2,3,4,9-tetrahydro-1H-pyrido[3,4-b]indole], the inhibition at 1 µM in assay [1] (setting [4]) was 96%; in assay [2] (setting [5]), 89%; in assay [3] (setting [6]), 66%.

On to `C/C(=C\n1c2c(c3cc(Cl)ccc31)CCN(C)C2)c1ccc(Cl)cc1` [Compound 98, 6-chloro-9-(2-(4-chlorophenyl)prop-1-enyl)-2-methyl-2,3,4,9-tetrahydro-1H-pyrido[3,4-b]indole], for which the inhibition at 1 µM was 87% in assay [1] (setting [4]), 94% in assay [2] (setting [5]) and 57% in assay [3] (setting [6]).

(Values after patent US9260429B2, “Pyrido[3,4-B]indoles and methods of use” (Medivation Technologies, Inc., priority 2008, dated 2016).)
